Source: PubChem BioAssay (NCI)
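Protocol summary: plate cells (96-well), add compound at 5 concentrations, incubate 48 h, interpolate endpoints linearly. TGI: total growth inhibition.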

Legend:
Assay in all cases: NCI-60 cell line screen, 48 h
786-0 renal = test system: 786-0 renal
A498 renal = test system: A498 renal
A549 NSCLC = test system: A549 NSCLC
ACHN renal = test system: ACHN renal
CAKI-1 renal = test system: CAKI-1 renal
CCRF-CEM leukemia = test system: CCRF-CEM leukemia
COLO 205 colon = test system: COLO 205 colon
DLD-1 colon = test system: DLD-1 colon
DMS 114 small cell lung = test system: DMS 114 small cell lung
DMS 273 small cell lung = test system: DMS 273 small cell lung
EKVX NSCLC = test system: EKVX NSCLC
HCC-2998 colon = test system: HCC-2998 colon
HCT-116 colon = test system: HCT-116 colon
HCT-15 colon = test system: HCT-15 colon
HL-60(TB) leukemia = test system: HL-60(TB) leukemia
HOP-18 NSCLC = test system: HOP-18 NSCLC
HOP-62 NSCLC = test system: HOP-62 NSCLC
HOP-92 NSCLC = test system: HOP-92 NSCLC
HT29 colon = test system: HT29 colon
IGROV1 ovarian = test system: IGROV1 ovarian
K-562 leukemia = test system: K-562 leukemia
KM12 colon = test system: KM12 colon
KM20L2 colon = test system: KM20L2 colon
LOX IMVI melanoma = test system: LOX IMVI melanoma
LXFL 529 NSCLC = test system: LXFL 529 NSCLC
M14 melanoma = test system: M14 melanoma
M19-MEL melanoma = test system: M19-MEL melanoma
MALME-3M melanoma = test system: MALME-3M melanoma
MOLT-4 leukemia = test system: MOLT-4 leukemia
NCI-H226 lung = test system: NCI-H226 lung
NCI-H23 lung = test system: NCI-H23 lung
NCI-H460 lung = test system: NCI-H460 lung
NCI-H522 lung = test system: NCI-H522 lung
OVCAR-3 ovarian = test system: OVCAR-3 ovarian
OVCAR-4 ovarian = test system: OVCAR-4 ovarian
OVCAR-5 ovarian = test system: OVCAR-5 ovarian
OVCAR-8 ovarian = test system: OVCAR-8 ovarian
RPMI-8226 leukemia = test system: RPMI-8226 leukemia
RXF-631 renal = test system: RXF-631 renal
SF-268 CNS = test system: SF-268 CNS
SF-295 CNS = test system: SF-295 CNS
SF-539 CNS = test system: SF-539 CNS
SK-MEL-2 melanoma = test system: SK-MEL-2 melanoma
SK-MEL-28 melanoma = test system: SK-MEL-28 melanoma
SK-MEL-5 melanoma = test system: SK-MEL-5 melanoma
SK-OV-3 ovarian = test system: SK-OV-3 ovarian
SN12C renal = test system: SN12C renal
SNB-19 CNS = test system: SNB-19 CNS
SNB-75 CNS = test system: SNB-75 CNS
SNB-78 CNS = test system: SNB-78 CNS
SR leukemia = test system: SR leukemia
SW-620 colon = test system: SW-620 colon
TK-10 renal = test system: TK-10 renal
U251 CNS = test system: U251 CNS
UACC-257 melanoma = test system: UACC-257 melanoma
UACC-62 melanoma = test system: UACC-62 melanoma
UO-31 renal = test system: UO-31 renal
XF 498 CNS = test system: XF 498 CNS
RXF 393 renal = test system: RXF 393 renal

O=[N+]([O-])c1ccc(-c2ccc(/C=N/n3c(-c4ccc(Cl)cc4)n[nH]c3=S)o2)cc1
TGI (786-0 renal): 46.2 µM
TGI (A498 renal): > 100 µM
TGI (A549 NSCLC): > 64.6 µM
TGI (ACHN renal): > 60.8 µM
TGI (CAKI-1 renal): > 90.1 µM
TGI (CCRF-CEM leukemia): > 100 µM
TGI (COLO 205 colon): > 75.5 µM
TGI (DLD-1 colon): > 100 µM
TGI (DMS 114 small cell lung): > 100 µM
TGI (DMS 273 small cell lung): > 63.3 µM
TGI (EKVX NSCLC): > 100 µM
TGI (HCC-2998 colon): > 100 µM
TGI (HCT-116 colon): 43.6 µM
TGI (HCT-15 colon): > 100 µM
TGI (HL-60(TB) leukemia): > 100 µM
TGI (HOP-18 NSCLC): > 100 µM
TGI (HOP-62 NSCLC): > 52.9 µM
TGI (HOP-92 NSCLC): > 94.3 µM
TGI (HT29 colon): > 55.2 µM
TGI (IGROV1 ovarian): > 100 µM
TGI (K-562 leukemia): > 31.6 µM
TGI (KM12 colon): 61.4 µM
TGI (KM20L2 colon): > 65.8 µM
TGI (LOX IMVI melanoma): > 100 µM
TGI (LXFL 529 NSCLC): > 71.1 µM
TGI (M14 melanoma): 32.3 µM
TGI (M19-MEL melanoma): > 55.8 µM
TGI (MALME-3M melanoma): 43.1 µM
TGI (MOLT-4 leukemia): > 100 µM
TGI (NCI-H226 lung): > 58.5 µM
TGI (NCI-H23 lung): > 56.6 µM
TGI (NCI-H460 lung): > 54.7 µM
TGI (NCI-H522 lung): > 100 µM
TGI (OVCAR-3 ovarian): > 66.8 µM
TGI (OVCAR-4 ovarian): > 61.8 µM
TGI (OVCAR-5 ovarian): > 100 µM
TGI (OVCAR-8 ovarian): > 100 µM
TGI (RPMI-8226 leukemia): > 31.6 µM
TGI (RXF-631 renal): > 55.5 µM
TGI (SF-268 CNS): > 100 µM
TGI (SF-295 CNS): > 64 µM
TGI (SF-539 CNS): > 62.7 µM
TGI (SK-MEL-2 melanoma): > 100 µM
TGI (SK-MEL-28 melanoma): 34 µM
TGI (SK-MEL-5 melanoma): 49.8 µM
TGI (SK-OV-3 ovarian): > 100 µM
TGI (SN12C renal): > 100 µM
TGI (SNB-19 CNS): > 72.7 µM
TGI (SNB-75 CNS): > 83.1 µM
TGI (SNB-78 CNS): > 70.3 µM
TGI (SR leukemia): > 83.6 µM
TGI (SW-620 colon): > 68.5 µM
TGI (TK-10 renal): > 64.7 µM
TGI (U251 CNS): > 53.7 µM
TGI (UACC-257 melanoma): > 100 µM
TGI (UACC-62 melanoma): > 100 µM
TGI (UO-31 renal): > 100 µM
TGI (XF 498 CNS): 46.6 µM

O=S(=O)(O)CS(=O)(=O)OCCCl
TGI (786-0 renal): > 100 µM
TGI (A498 renal): > 100 µM
TGI (A549 NSCLC): > 100 µM
TGI (ACHN renal): > 100 µM
TGI (CAKI-1 renal): > 100 µM
TGI (COLO 205 colon): > 100 µM
TGI (DLD-1 colon): > 100 µM
TGI (DMS 114 small cell lung): > 100 µM
TGI (DMS 273 small cell lung): > 100 µM
TGI (EKVX NSCLC): > 100 µM
TGI (HCC-2998 colon): > 100 µM
TGI (HCT-116 colon): > 100 µM
TGI (HL-60(TB) leukemia): > 100 µM
TGI (HOP-18 NSCLC): > 100 µM
TGI (HOP-62 NSCLC): > 100 µM
TGI (HOP-92 NSCLC): > 100 µM
TGI (HT29 colon): > 100 µM
TGI (IGROV1 ovarian): > 100 µM
TGI (K-562 leukemia): > 100 µM
TGI (KM12 colon): > 100 µM
TGI (KM20L2 colon): > 100 µM
TGI (LOX IMVI melanoma): > 100 µM
TGI (LXFL 529 NSCLC): > 100 µM
TGI (M14 melanoma): > 100 µM
TGI (M19-MEL melanoma): > 100 µM
TGI (MALME-3M melanoma): > 100 µM
TGI (MOLT-4 leukemia): > 100 µM
TGI (NCI-H226 lung): > 100 µM
TGI (NCI-H23 lung): > 100 µM
TGI (NCI-H460 lung): > 100 µM
TGI (NCI-H522 lung): > 100 µM
TGI (OVCAR-3 ovarian): > 100 µM
TGI (OVCAR-4 ovarian): > 100 µM
TGI (OVCAR-5 ovarian): > 100 µM
TGI (OVCAR-8 ovarian): > 100 µM
TGI (RPMI-8226 leukemia): > 100 µM
TGI (RXF 393 renal): > 100 µM
TGI (RXF-631 renal): > 100 µM
TGI (SF-268 CNS): > 100 µM
TGI (SF-295 CNS): > 100 µM
TGI (SF-539 CNS): > 100 µM
TGI (SK-MEL-28 melanoma): > 100 µM
TGI (SK-MEL-5 melanoma): > 100 µM
TGI (SK-OV-3 ovarian): > 100 µM
TGI (SN12C renal): > 100 µM
TGI (SNB-19 CNS): > 100 µM
TGI (SNB-75 CNS): > 100 µM
TGI (SNB-78 CNS): > 100 µM
TGI (SR leukemia): > 100 µM
TGI (SW-620 colon): > 100 µM
TGI (TK-10 renal): > 100 µM
TGI (U251 CNS): > 100 µM
TGI (UACC-257 melanoma): > 100 µM
TGI (UACC-62 melanoma): > 100 µM
TGI (UO-31 renal): > 100 µM
TGI (XF 498 CNS): > 100 µM
